Measurements from patent US20130064812A1, “COMBINATION THERAPIES FOR HEMATOLOGIC MALIGNANCIES” (Gilead Calistoga LLC, priority 2011, published 2013).

Columns and labels:
PI3Kα = PI3Kα (Mus musculus, UniProt P42337); test: Isoform specific cell-based assay: PDGF induced pAKT in Swiss-3T3 fibroblasts; details: Fibroblast Cell Line, n = 12
Procedure: Swiss-3T3 fibroblasts and RAW-264 were seeded on a 96-well tissue culture plate and allowed to reach at least 90% confluency. […] Akt phosphorylation and total AKT was detected by ELISA. […] Results are expressed as relative [^3H] thymidine incorporation induced by IgM crosslinking.

[1] = system: T47D and HS-578T cell lines; test: Proliferation of breast cancer cell lines (AlamarBlue); format: cell-based; details: 48 hrs and 72 hrs
Procedure: T47D and HS-578T cell lines were grown in the presence of serum plus the indicated concentrations of the compound of formula I. Proliferation was measured in triplicate wells by AlamarBlue® assay (Invitrogen) 96-well plates.

[2] = system: CLL cells on stromaNKTert; test: Calcein-based adhesion assay of CLL cells on stroma; format: cell-based, human
Procedure: a confluent monolayer of CD154+L or StromaNKTert cells was generated by plating 1×10^4 cells/well in 96-well plates for 24 hours. Single cell suspensions of CLL cells at 0.5×10^6 cells/ml were then labeled with 1 μg/mL Calcein-AM (Invitrogen) for 1 hour. Cells were then spun down and treated with compound or vehicle for 1 to 24 hours. Non-adherent cells were washed off by aspiration. CLL cell adhesion was quantified by fluorimetry (Ex/Em=485/520 nm), and visualized directly using the Nikon TE2000 inverted live-cell imaging system.

CLL = test: Previous single-agent study in patients with CLL; format: in vivo, human; details: single-agent therapy
CLL-NLC co-cultures = format: cell-based, human
Procedure: (§1) This pro-survival effect was abrogated by the compound of formula I, which reduced CLL cell viability to 85±3% of controls at 48 hours (mean±SEM, n=15, *P<0.05). […] BCR cross-linking induces secretion of the chemokines CCL3 and CCL4 by CLL cells, which was quantified in CLL supernatants by ELISA.
(§2) The CCL3 concentrations were reduced by the compound of formula I from 943±535 pg/mL to 156±8 pg/mL, and the CCL4 concentrations from 7433±4463 pg/mL to 316±53 pg/mL (mean±SEM, n=5, *P<0.05).

CLL cells = format: cell-based, human
Procedure: as §1, §2

AKT and ERK1/2 = AKT and ERK1/2 in HuVEC (immunoblot); format: cell-based, human; details: 8 h
Excerpt: Actin was used as a loading control.

HuVECs = test: In vitro angiogenesis assay (tube formation); format: cell-based, human; details: 0, 1.0, or 10 μM, 8 h; p<0.05
Procedure: HUVEC and endothelial growth media were obtained from Lonza (Walkersville, Md., USA). […] After 8 h, tube formation was evaluated using Leika DM IL microscopy (Leica Microsystems, Wetzlar, Germany) and analyzed with IM50 software (Leica Microsystems Imaging Solutions, Cambridge, UK). HUVEC cell migration and rearrangement was visualized, and the number of branching points counted.
The effect of P110δ inhibition on angiogenesis was investigated.

over 350 protein kinases = test: Ambit KINOMEscan kinome-wide protein kinase screen; format: binding; details: 10 μM, over 350 protein kinases (over 300)
Excerpt: Examples of some kinases in the screen are shown below in Table 3.

[3] = system: CD19+ cells from CLL patients; test: mRNA expression in CD19+ CLL cells (RT-PCR); format: cell-based, human; details: 0.5 μM lenalidomide and/or 10 μM compound, 48 hours
Procedure: RNA was extracted using TRIzol reagent (Invitrogen) and cDNA was prepared using a SuperScript First-Strand Synthesis System (Invitrogen). Real-Time PCR was performed using pre-designed TaqMan® Gene Expression Assays and ABI Prism 7700 sequence detection system (Applied Biosystems, Foster City, Calif.).
RNA was extracted and converted to cDNA and RT-PCR analysis was done to determine quantities of CD40, CD86 and CD154 mRNA.
Lastly, lenalidomide treatment of CLL cells in culture was tested to determine whether it could promote tumor cell production of vascular endothelial growth factor (VEGF) and basic fibroblast growth factor (b-FGF). […] RNA was extracted and converted to cDNA and RT-PCR analysis was done to determine quantities of bFGF.
RNA was extracted and converted to cDNA and RT-PCR analysis was done to determine quantities of VEGF

[4] = system: HS-578T, T47D, and MCF7 cells; test: Apoptosis in breast cancer cell lines (Annexin V-FITC/7AAD); format: cell-based; details: 24 h
Procedure: HS-578T, T47D, and MCF7 cells were treated with the compound of formula I or corresponding DMSO concentrations for 24 h. The percentage of apoptotic cells was determined by Annexin V-FITC/7AAD staining. Bottom left, viable cells ([…]); bottom right, early apoptotic cells (Annexin V-FITC positive only); top right, mid-late apoptotic cells (Annexin V-FITC/7AAD double-positive); and top left, late apoptotic/necrotic (7AAD positive only). Percentages of cells in each quadrant are indicated except for the bottom left quadrant (viable cells).

[5] = system: CLL cells co-cultured with MSCs; test: CLL cells co-cultured with marrow stromal cells (MSC), DiOC6/PI viability; details: compound 5 μM; bendamustine, fludarabine, dexamethasone 10 μM
Excerpt: The viable cell population was characterized by bright DiOC6 staining and PI exclusion, and was gated in the lower right corner of each contour plot.
Viabilities of drug-treated samples were normalized to the viabilities of control samples at the respective timepoints (100%).

[6] = listed as compound of formula I

PI3Kα, sequence (P42337 whole entry, canonical isoform): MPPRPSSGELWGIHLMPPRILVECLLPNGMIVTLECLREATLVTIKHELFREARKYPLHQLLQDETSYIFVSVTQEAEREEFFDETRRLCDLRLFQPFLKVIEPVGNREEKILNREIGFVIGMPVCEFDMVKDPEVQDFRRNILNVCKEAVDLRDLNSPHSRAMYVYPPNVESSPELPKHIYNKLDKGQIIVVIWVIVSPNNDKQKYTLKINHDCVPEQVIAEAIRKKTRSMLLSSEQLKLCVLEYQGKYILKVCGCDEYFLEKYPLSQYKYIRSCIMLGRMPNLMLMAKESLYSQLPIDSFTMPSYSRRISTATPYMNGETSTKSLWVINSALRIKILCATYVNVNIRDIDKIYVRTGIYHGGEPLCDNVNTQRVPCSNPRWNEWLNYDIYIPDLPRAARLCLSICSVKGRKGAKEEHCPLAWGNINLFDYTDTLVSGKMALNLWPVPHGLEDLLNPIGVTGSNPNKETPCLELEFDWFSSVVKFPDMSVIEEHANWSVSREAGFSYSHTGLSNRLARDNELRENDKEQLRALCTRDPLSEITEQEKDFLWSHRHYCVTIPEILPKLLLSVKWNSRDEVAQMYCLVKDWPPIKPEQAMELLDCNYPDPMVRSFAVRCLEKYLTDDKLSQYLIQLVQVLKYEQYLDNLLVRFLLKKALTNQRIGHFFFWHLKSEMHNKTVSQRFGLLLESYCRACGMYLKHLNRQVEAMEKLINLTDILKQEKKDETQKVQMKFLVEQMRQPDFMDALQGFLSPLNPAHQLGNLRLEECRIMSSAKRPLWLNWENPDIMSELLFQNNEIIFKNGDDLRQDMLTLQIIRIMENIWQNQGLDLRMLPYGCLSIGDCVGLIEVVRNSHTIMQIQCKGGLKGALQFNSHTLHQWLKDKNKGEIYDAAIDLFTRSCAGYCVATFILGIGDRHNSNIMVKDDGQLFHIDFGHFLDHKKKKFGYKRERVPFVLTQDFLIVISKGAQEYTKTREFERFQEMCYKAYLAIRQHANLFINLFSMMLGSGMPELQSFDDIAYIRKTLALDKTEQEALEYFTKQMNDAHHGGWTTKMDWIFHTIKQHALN
PI3Kα, sequence (P26450 whole entry partner, canonical isoform): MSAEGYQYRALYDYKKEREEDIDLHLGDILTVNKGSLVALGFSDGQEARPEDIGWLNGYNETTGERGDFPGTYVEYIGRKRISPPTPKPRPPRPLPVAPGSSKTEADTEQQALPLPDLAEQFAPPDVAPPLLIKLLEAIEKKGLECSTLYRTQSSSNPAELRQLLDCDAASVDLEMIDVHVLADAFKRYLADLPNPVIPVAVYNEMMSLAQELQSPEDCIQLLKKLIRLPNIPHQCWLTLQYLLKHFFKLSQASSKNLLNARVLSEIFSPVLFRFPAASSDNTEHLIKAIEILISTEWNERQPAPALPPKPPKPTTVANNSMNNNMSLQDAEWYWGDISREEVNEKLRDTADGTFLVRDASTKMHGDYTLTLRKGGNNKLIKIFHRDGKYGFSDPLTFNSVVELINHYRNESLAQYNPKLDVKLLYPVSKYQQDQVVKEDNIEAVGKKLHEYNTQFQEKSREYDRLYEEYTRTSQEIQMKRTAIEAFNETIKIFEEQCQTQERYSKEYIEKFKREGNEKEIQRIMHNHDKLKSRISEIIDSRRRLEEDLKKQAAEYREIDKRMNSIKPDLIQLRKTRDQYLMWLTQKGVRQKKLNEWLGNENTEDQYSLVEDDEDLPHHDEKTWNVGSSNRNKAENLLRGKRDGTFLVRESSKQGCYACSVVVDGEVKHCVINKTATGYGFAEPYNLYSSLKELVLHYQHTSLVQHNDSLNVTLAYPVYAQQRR
Procedure for patient MM cells: All MM cell lines were cultured in RPMI1640 medium. Bone marrow stromal cells (BMSCs) were cultured in Dulbecco's modification of Eagle's medium (DMEM) (Sigma) containing 15% fetal bovine serum, 2 mM L-glutamine (Life Technologies), 100 U/mL penicillin, and 100 μg/mL streptomycin (Life Technologies). […] Patient MM and BM cells were obtained from BM samples after informed consent was obtained per the Declaration of Helsinki and approval by the Institutional Review Board of the Dana-Farber Cancer Institute (Boston, Mass.). BM mononuclear cells were separated using Ficoll-Paque™ density sedimentation, and plasma cells were purified (>95% CD138+) by positive selection with anti-CD138 magnetic activated cell separation micro beads (Miltenyi Biotec, Auburn, Calif.). Tumor cells were also purified from the BM of MM patients using the RosetteSep negative selection system (StemCell Technologies, Vancouver, BC, Canada).
Data represent mean±SD viability, assessed by MTT assay of triplicate cultures, expressed as percentage of untreated controls.

CC[C@H](Nc1ncnc2[nH]cnc12)c1nc2cccc(F)c2c(=O)n1-c1ccccc1 [Compound I, 5-fluoro-3-phenyl-2-[1-(9H-purin-6-ylamino)-propyl]-3H-quinazolin-4-one]
EC50 (PI3Kα): > 20 µM
proliferation of breast cancer cell lines [1]: reduces cellular proliferation of two breast cancer cell lines
proliferation of breast cancer cell lines [1, 6]: inhibits proliferation of breast cancer cell lines
CLL cell adherence to stroma at one hour [2]: reduced adherence of CLL cells was detectable
CLL cell adherence to stroma at 24 hours ([2]; 10 μM): exhibited less adherent at 24 hours
fraction of patients with CLL with lymphocytosis (CLL): ⅔
lymphocyte redistribution (CLL): transient lymphocytosis in patients with CLL
cytotoxicity against patient MM cells (patient MM cells): induced cytotoxicity against patient MM cells
CXCL13 level (CLL-NLC co-cultures; CLL-NLC co-cultures, from 151±35, n=4): 70 ± 27 pg/mL
CCL3 concentration (CLL-NLC co-cultures; CLL-NLC co-cultures, from 943±535 pg/mL, n=5): 156 ± 8 pg/mL
CCL4 concentration (CLL-NLC co-cultures; CLL-NLC co-cultures, from 7433±4463 pg/mL, n=5): 316 ± 53 pg/mL
CLL cell viability, % of untreated controls (CLL-NLC co-cultures; human, 48 h): 64±6%
supernatant CCL3 concentration (CLL cells; BCR cross-linking, from 4060±1392 pg/mL, mean±SEM, n=6): 2901 ± 1220 pg/mL
supernatant CCL4 level (CLL cells; BCR cross-linking, from 5721±1789 pg/mL, mean±SEM, n=6): 3223 ± 1311 pg/mL
CLL cell viability, % of controls (CLL cells; human, 48 h): 85±3%
phosphorylation and expression of AKT and ERK1/2 in HuVEC (AKT and ERK1/2): markedly down regulated
capillary-like tube formation (HuVECs): inhibited capillary-like tube formation in a dose-dependent fashion
activity in kinome-wide protein kinase screen (over 350 protein kinases): failed to detect any activity
activity in kinome-wide protein kinase screen (over 350 protein kinases; [6]): little activity
VEGF transcription ([3]; N=13): reversible by treatment with the compound of formula I
b-FGF transcription ([3]; N=15): prevented this up-regulation
mRNA of CD40, CD86, CD154 and CD80 ([3]; N=15, p<0.009): prevent the increase in mRNA of CD40, CD86, CD154 and CD80 promoted by lenalidomide
apoptosis in breast cancer cell lines [4]: cytotoxicity to three different breast cancer cell lines
apoptosis in breast cancer cell lines [4, 6]: induces apoptosis in breast cancer cell lines
CLL cell death / survival in co-culture with MSC [5]: sensitized CLL cells to the cytotoxic agents
